Calls of active or inactive are those of the source.
Key:
[1] = system: Jurkat; assay: blockers of NF-kB activation in T cells – Jurkat, luciferase reporter, luminescence, B- and T-cell, dose response (AID 489004); format: functional, cell-based; conditions: Homo sapiens;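 also: NF-kB luciferase reporter Jurkat cells stimulated with PMA plus ionomycin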
[2] = Luminescence Cell-Based Dose Response HTS to Identify Inhibitors of 5'UTR Stem-Loop Driven Prion Protein mRNA Translation in H4 Neuroglioblastoma Cells. [Related pubchem assays: 1827 (Project Summary), 1813 (Primary HTS)]; format: functional
[3] = alpha-synuclein stem-loop luciferase translation blockers – H4 neuroglioma cells, luminescence, confirmation (AID 1988); format: functional, cell-based
[4] = system: SN12K1; assay: cells; format: functional; conditions: Homo sapiens
[5] = system: P388/ADR; assay: cells; format: functional; conditions: Mus musculus
[6] = system: P388; assay: cells; format: functional; conditions: Mus musculus
[7] = luciferase reporter signal suppression in cells – H4 neuroglioma cells, luminescence, dose response (AID 1990); format: functional, cell-based
[8] = HEK-293T viability loss, compound-treated – cell-based, uHTS hits, cytotoxicity control for B/T-cell NF-kB inhibitor project, dose response (AID 489019); format: functional;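 also: IC50 reflects cytotoxicity as loss of cell viability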
[9] = target: T1, Heat shock factor protein 1 (Mus musculus, UniProt P38532); assay: decrease of HSF1-responsive luciferase luminescence – cell-based, NIH3T3, dose retest, confirmation (AID 2382); format: functional;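 also: NIH3T3 fibroblasts with HSF1-driven luciferase reporter stressed by proteasome inhibitor MG132; luminescence from HSF1-driven luciferase expression after 8 hours of MG132 stress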
T1 sequence (P38532 whole entry): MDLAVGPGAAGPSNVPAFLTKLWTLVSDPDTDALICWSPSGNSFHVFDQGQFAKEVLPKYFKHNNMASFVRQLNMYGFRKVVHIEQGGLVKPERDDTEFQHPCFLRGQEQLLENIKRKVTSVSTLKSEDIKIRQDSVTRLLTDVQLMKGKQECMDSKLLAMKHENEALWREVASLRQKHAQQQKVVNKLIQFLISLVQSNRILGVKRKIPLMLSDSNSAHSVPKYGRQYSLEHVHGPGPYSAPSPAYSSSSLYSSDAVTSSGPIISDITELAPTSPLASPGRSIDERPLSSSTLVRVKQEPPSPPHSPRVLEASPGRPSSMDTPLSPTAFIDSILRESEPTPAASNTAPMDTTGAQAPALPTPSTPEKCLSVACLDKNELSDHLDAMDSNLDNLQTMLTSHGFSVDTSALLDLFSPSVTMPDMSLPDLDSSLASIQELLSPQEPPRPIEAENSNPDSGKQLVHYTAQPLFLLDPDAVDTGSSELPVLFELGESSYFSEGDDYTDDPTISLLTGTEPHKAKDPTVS

[10] = target: T2, Protein Tat (Human immunodeficiency virus type 1 group M subtype B (isolate HXB2)(HIV-1), UniProt P04608); format: functional;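 also: tat binding to TAR RNA read out by fluorescence polarization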
T2 sequence (P04608 whole entry): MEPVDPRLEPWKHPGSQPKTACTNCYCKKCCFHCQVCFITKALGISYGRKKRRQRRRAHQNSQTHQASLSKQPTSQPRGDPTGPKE

[11] = target: Phospholipase A2 (Homo sapiens, UniProt P04054); format: functional;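 also: confirmatory dose-response counterscreen on phospholipase A2, testing hits that came from an ultra-high-throughput screen for ATG4B inhibitors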
Sequence of Phospholipase A2 (P04054 whole entry): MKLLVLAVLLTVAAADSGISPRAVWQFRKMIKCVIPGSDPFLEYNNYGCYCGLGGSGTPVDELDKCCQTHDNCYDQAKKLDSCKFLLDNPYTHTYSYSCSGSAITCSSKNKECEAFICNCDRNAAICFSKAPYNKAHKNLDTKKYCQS

[12] = target: T3, Zinc finger protein mex-5 (Caenorhabditis elegans, UniProt Q9XUB2); assay: potency of MEX-5 RNA-binding blockers – biochemical, C. elegans, fluorescence polarization, dose response (AID 1960)
T3 sequence (Q9XUB2 whole entry): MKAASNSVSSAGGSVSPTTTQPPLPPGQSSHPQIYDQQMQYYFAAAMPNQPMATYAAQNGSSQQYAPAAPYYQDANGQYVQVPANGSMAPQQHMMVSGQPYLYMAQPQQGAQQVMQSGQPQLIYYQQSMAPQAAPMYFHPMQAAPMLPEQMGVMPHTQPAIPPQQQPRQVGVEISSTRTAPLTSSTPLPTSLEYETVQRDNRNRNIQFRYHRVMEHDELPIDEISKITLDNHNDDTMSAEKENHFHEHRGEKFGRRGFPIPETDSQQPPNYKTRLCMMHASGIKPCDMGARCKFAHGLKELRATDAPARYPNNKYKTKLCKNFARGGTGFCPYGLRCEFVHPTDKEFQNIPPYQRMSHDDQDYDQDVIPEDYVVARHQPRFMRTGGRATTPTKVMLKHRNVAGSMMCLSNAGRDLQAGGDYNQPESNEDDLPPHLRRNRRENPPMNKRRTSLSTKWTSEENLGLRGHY

[13] = system: Escherichia coli; assay: microbe, parasite or virus in culture
[14] = viability loss in THP-1 monocytes – THP-1 cells, cytotoxicity control for Vif-APOBEC3G degradation inhibitor project, dose response (AID 1117359); format: functional; conditions: THP-1
[15] = target: T4, Cysteine protease ATG4B (Homo sapiens, UniProt Q9Y4P1); format: functional;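 also: Fluorescence-based dose-response confirmation assay measuring inhibition of ATG4B activity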
T4 sequence (Q9Y4P1 whole entry): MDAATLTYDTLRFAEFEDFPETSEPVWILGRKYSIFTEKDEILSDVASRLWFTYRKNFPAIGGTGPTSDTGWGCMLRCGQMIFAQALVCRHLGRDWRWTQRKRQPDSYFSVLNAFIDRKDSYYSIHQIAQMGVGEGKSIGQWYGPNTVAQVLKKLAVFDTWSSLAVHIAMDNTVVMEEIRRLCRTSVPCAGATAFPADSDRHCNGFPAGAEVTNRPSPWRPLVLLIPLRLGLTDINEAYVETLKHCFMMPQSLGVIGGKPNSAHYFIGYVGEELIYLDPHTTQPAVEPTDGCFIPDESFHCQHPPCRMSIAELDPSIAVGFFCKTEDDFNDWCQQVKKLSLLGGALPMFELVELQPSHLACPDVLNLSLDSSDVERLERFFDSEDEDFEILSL

[16] = system: Escherichia coli; assay: microbe, parasite or virus in culture; remark: listed apart in the source
[17] = target: Dual specificity tyrosine-phosphorylation-regulated kinase 1A (Rattus norvegicus, UniProt Q63470); format: biochemical, Homo sapiens
[18] = system: HeLa; assay: ATP-based viability loss in HeLa cells – cell-based, CellTiter-Glo luminescence, cherry-pick samples, cytotoxicity control for MITF activator project, dose response (AID 540259); format: functional; conditions: Homo sapiens

For `Nc1nc(Cl)nc2c1ncn2C1CC(O)C(CO)O1` (stereo not drawn), the IC50 [1] was 2.36 µM (active), the EC50 [2] was 3.61 µM (active) and the EC50 [3] was 0.567 µM (active). The GI50 [4] was 0.695 µM (active), the GI50 [5] was 0.0535 µM (active) and the GI50 [6] was 0.0428 µM (active). For the same compound, the EC50 [7] was 0.544 µM (active), the IC50 [8] was > 80 µM (inactive) and the EC50 [9] was 79.9 µM (active).
In the case of `C[C@H]1c2cccc(O)c2C(=O)C2=C(O)[C@]3(O)C(=O)C(C(N)=O)=C(O)[C@@H](N(C)C)[C@@H]3[C@@H](O)[C@@H]21`, the IC50 [10] is reported as > 100 µM (active), the IC50 [11] is reported as 42.9 µM (inactive) and the EC50 [12] is reported as 37.9 µM (active). The AC50 [13] was 0.783 µM (active), the CC50 [14] was 36 µM (active) and the IC50 [15] was 10.4 µM (active). The AC50 [16] was 20.8 µM (active).
For `COc1ccc(C=C2SC(=S)NC2=O)cc1`, the AC50 [17] was 0.104 µM (active).
For `Cc1ccc(NC(=O)C(=O)NCc2ccccn2)cc1`, the AC50 [18] was > 350 µM (inactive).

From ChEMBL document CHEMBL1201862, “PubChem BioAssay data set” (2004)
